The text below walks through data of patent US20170333391A1, “METHOD FOR DELAYING THE ONSET OF PULMONARY FIBROSIS OR TREATING PULMONARY FIBROSIS” (EVERFRONT BIOTECH INC., priority 2016, published 2017).

In one assay the test system is BMP-7 protein. Nature of the assay: BMP-7 protein expression in TGF-β1-induced NHLF, western blotting (Example 4). Type of assay: cell-based, human. To be noted: uninduced control = 1, TGF-β1-only group A = 0.19. On the procedure: Normal Human lung fibroblasts (NHLF) were seeded into 6 cm culture dishes at a density of 2×10^5 cells/dish, comprising a control group and five experimental groups (6 dishes in total). The cells were cultured until the next day, and then the mediums were removed. Each group was respectively treated under the following conditions to conduct follow-up experiments: • (1) Control group: cells were cultured in a FGM-2 medium containing 1% serum for 36 hours; • (2) Group A: cells were cultured in a FGM-2 medium containing 1% serum and TGF-β1 (5 ng/ml) for 36 hours; • (3) Group B: cells were firstly cultured in a FGM-2 medium containing 1% serum and TGF-β1 (5 ng/ml) for 12 hours, and then compound (1) was added into the medium to provide a final concentration of 15 μg/ml; thereafter, the cells were cultured for another 24 hours; • (4) Group C: cells were firstly cultured in a FGM-2 medium containing 1% serum and TGF-β1 (5 ng/ml) for 12 hours, and then compound (1) was added into the medium to provide a final concentration of 30 μg/ml; thereafter, the cells were cultured for another 24 hours; • (5) Group D: cells were firstly cultured in a FGM-2 medium containing 1% serum and TGF-β1 (5 ng/ml) for 12 hours, and then compound (2) was added into the medium to provide a final concentration of 100 μg/ml; thereafter, the cells were cultured for another 24 hours; and • (6) Group E: cells were firstly cultured in a FGM-2 medium containing 1% serum and TGF-β1 (5 ng/ml) for 12 hours, and then compound (2) was added into the medium to provide a final concentration of 200 μg/ml; thereafter, the cells were cultured for another 24 hours.
Thereafter, the proteins in the cells of each group were extracted, and the expressions of BMP-7 protein, TGF-β protein and p-smad2/3 protein in the NHLF cells of each group were measured with western blotting. The results of the control group served as the basis for calculating the relative expression levels of the other groups.

In another assay the test system is IL-6. The experiment in a line: IL-6 mRNA in mouse pulmonary tissue, RT-PCR. Format: in vivo, mice. To be noted: Bleomycin sulfate, normal control = 1, oil group = 3.26. The source says: (§1) 24 C57B/L6 mice (age: four weeks) were separated into four groups (6 mice in each group). […]
Then, for another portion of ground samples of each group, the total RNAs were extracted using an RNeasy Mini Kit. The QuantiTect Reverse Transcription Kit was used to conduct reverse transcription on the total RNA to obtain the cDNA. […]

In a further assay the test system is surfactant C. The experiment in a line: surfactant C in mouse pulmonary tissue, western blotting. Type of assay: in vivo, mice. To be noted: compared to oil group. On the procedure: as §1
The samples of mice pulmonary tissue provided by Example 7 and preserved at −20° C. were removed from storage, and then ground in liquid nitrogen. […] The expressions of TGF-β protein, smad3 protein and surfactant C in the samples of each group were measured with western blotting, wherein the actin served as an internal control.
(Immunoblotting shows a protein as a band on a membrane.)

As to `CCCC=C1OC(=O)c2ccccc21` [compound (1)], the “Relative expression level (fold) BMP-7 protein” value in the assay with BMP-7 protein (Group B: TGF-β1 5 ng/ml 12 h, then compound (1) 15 μg/ml 24 h) is given as 0.68 fold; in the assay on BMP-7 protein (Group C: TGF-β1 5 ng/ml 12 h, then compound (1) 30 μg/ml 24 h) it was 0.31 fold. In addition, the “Relative expression level (fold) IL-6” value is reported as 0.53 fold in the assay on IL-6 (High-dose group: mRNA in pulmonary tissue, compound (1) 50 mg/kg-body weight orally every day for 30 days) and 1.36 fold in the assay on IL-6 (Low-dose group: mRNA in pulmonary tissue, compound (1) 10 mg/kg-body weight orally every day for 30 days). The “expression level of surfactant C in pulmonary tissue” value in the assay with surfactant C (High-dose group, compound (1) 50 mg/kg orally daily 30 days) is listed as “significantly higher”; with surfactant C (Low-dose group, compound (1) 10 mg/kg orally daily 30 days), “significantly higher”.
